According to ChEMBL document CHEMBL1201862, “PubChem BioAssay data set” (2004):
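How tested: cells in 96-well plates exposed to compound for 48 hours at five concentrations. Here, GI50 denotes the concentration required for 50% inhibition of growth.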 Active and inactive are the calls of the source. Cut-off read from the data, not from the text of the source: active = GI50 up to about 1.1 µM and inactive = higher.

How the values were obtained:
Test in all cases: growth of human tumour cells (NCI), 48 h
TK-10 = system: TK-10
Malme-3M = system: Malme-3M
OVCAR-4 = system: OVCAR-4
NCI-H460 = system: NCI-H460
MCF7 = system: MCF7
SK-MEL-2 = system: SK-MEL-2
HCT-15 = system: HCT-15
DU-145 = system: DU-145
SK-MEL-28 = system: SK-MEL-28
SN12C = system: SN12C
CAKI-1 = system: CAKI-1
OVCAR-5 = system: OVCAR-5
SF-295 = system: SF-295
DLD-1 = system: DLD-1
HL-60 = system: HL-60
U-251 = system: U-251
HOP-62 = system: HOP-62
UO-31 = system: UO-31
M19-MEL = system: M19-MEL

CN(C)CCNc1ccc2nnn3c4ccc(O)cc4c(=O)c1c23
GI50 (TK-10): 5.12 µM (inactive) | GI50 (Malme-3M): 5.05 µM (inactive) | GI50 (OVCAR-4): 2.08 µM (inactive) | GI50 (NCI-H460): 0.498 µM (active) | GI50 (MCF7): 2.44 µM (inactive) | GI50 (SK-MEL-2): 9.79 µM (inactive) | GI50 (HCT-15): 1.29 µM | GI50 (DU-145): 6.31 µM (inactive) | GI50 (SK-MEL-28): 10.9 µM (inactive) | GI50 (SN12C): 1.85 µM (inactive) | GI50 (CAKI-1): 3.13 µM (inactive) | GI50 (OVCAR-5): 4.41 µM (inactive) | GI50 (SF-295): 2.54 µM (inactive) | GI50 (DLD-1): 3.4 µM (inactive) | GI50 (HL-60): 1.71 µM (inactive) | GI50 (U-251): 2.1 µM (inactive) | GI50 (HOP-62): 1.39 µM (inactive) | GI50 (UO-31): 2.22 µM (inactive)

COc1ccc2oc3c(ccc[n+]3C)c(=O)c2c1
GI50 (TK-10): > 100 µM (inactive) | GI50 (Malme-3M): > 100 µM (inactive) | GI50 (OVCAR-4): > 100 µM (inactive) | GI50 (NCI-H460): > 100 µM (inactive) | GI50 (MCF7): > 100 µM (inactive) | GI50 (SK-MEL-2): > 100 µM (inactive) | GI50 (HCT-15): > 100 µM | GI50 (DU-145): > 100 µM (inactive) | GI50 (SK-MEL-28): > 100 µM (inactive) | GI50 (SN12C): > 100 µM (inactive) | GI50 (CAKI-1): > 100 µM (inactive) | GI50 (OVCAR-5): > 100 µM (inactive) | GI50 (SF-295): > 100 µM (inactive) | GI50 (HL-60): > 100 µM (inactive) | GI50 (U-251): > 100 µM (inactive) | GI50 (HOP-62): > 100 µM (inactive) | GI50 (UO-31): > 100 µM (inactive)

COc1ccc(-c2cc(-c3ccco3)c(C#N)c(=O)[nH]2)cc1
GI50 (TK-10): 50.8 µM (inactive) | GI50 (Malme-3M): 29.8 µM (inactive) | GI50 (OVCAR-4): 29.2 µM (inactive) | GI50 (NCI-H460): 35.1 µM (inactive) | GI50 (HCT-15): 57.7 µM | GI50 (SK-MEL-28): > 100 µM (inactive) | GI50 (SN12C): 32.1 µM (inactive) | GI50 (OVCAR-5): > 100 µM (inactive) | GI50 (SF-295): 65 µM (inactive) | GI50 (DLD-1): > 100 µM (inactive) | GI50 (HL-60): > 100 µM (inactive) | GI50 (M19-MEL): 87.9 µM (inactive) | GI50 (U-251): 15.5 µM (inactive) | GI50 (HOP-62): 15.7 µM (inactive) | GI50 (UO-31): > 100 µM (inactive)

CCOC(=O)c1c2c(n3ccccc13)C(=O)c1ccccc1C2=O
GI50 (TK-10): 83.4 µM (inactive) | GI50 (Malme-3M): 7.91 µM (inactive) | GI50 (OVCAR-4): > 100 µM (inactive) | GI50 (NCI-H460): 3.52 µM (inactive) | GI50 (MCF7): 46 µM (inactive) | GI50 (SK-MEL-2): > 100 µM (inactive) | GI50 (HCT-15): 11.1 µM | GI50 (DU-145): > 100 µM (inactive) | GI50 (SK-MEL-28): > 100 µM (inactive) | GI50 (SN12C): > 100 µM (inactive) | GI50 (CAKI-1): > 100 µM (inactive) | GI50 (OVCAR-5): > 100 µM (inactive) | GI50 (SF-295): > 100 µM (inactive) | GI50 (HL-60): > 100 µM (inactive) | GI50 (U-251): 54.5 µM (inactive) | GI50 (HOP-62): 97.9 µM (inactive) | GI50 (UO-31): > 100 µM (inactive)

CCCCCCCCSC(SCCCCCCCC)=C1C(=O)N(c2ccccc2)N=C1C
GI50 (TK-10): 42.6 µM (inactive) | GI50 (Malme-3M): 53.6 µM (inactive) | GI50 (NCI-H460): 40.3 µM (inactive) | GI50 (SK-MEL-2): 58.6 µM (inactive) | GI50 (HCT-15): 37.7 µM | GI50 (SK-MEL-28): > 100 µM (inactive) | GI50 (SN12C): 33.7 µM (inactive) | GI50 (CAKI-1): 26.9 µM (inactive) | GI50 (OVCAR-5): 80.4 µM (inactive) | GI50 (SF-295): 36.9 µM (inactive) | GI50 (DLD-1): 21.4 µM (inactive) | GI50 (HL-60): 19.2 µM (inactive) | GI50 (M19-MEL): 37 µM (inactive) | GI50 (U-251): 17.5 µM (inactive) | GI50 (HOP-62): 46.5 µM (inactive) | GI50 (UO-31): 27.5 µM (inactive)

CCC1=C(CC2NCCc3cc(OC)c(OC)cc32)CC2c3ccccc3CCN2C1 (centres undefined)
GI50 (TK-10): 26.7 µM (inactive) | GI50 (Malme-3M): 14.6 µM (inactive) | GI50 (OVCAR-4): 22.5 µM (inactive) | GI50 (NCI-H460): 12.6 µM (inactive) | GI50 (MCF7): 18.7 µM (inactive) | GI50 (SK-MEL-2): 15.8 µM (inactive) | GI50 (HCT-15): 37.9 µM | GI50 (DU-145): 38.5 µM (inactive) | GI50 (SK-MEL-28): 13.9 µM (inactive) | GI50 (SN12C): 21.7 µM (inactive) | GI50 (CAKI-1): 22.4 µM (inactive) | GI50 (OVCAR-5): 12.4 µM (inactive) | GI50 (SF-295): 20.4 µM (inactive) | GI50 (HL-60): 9.06 µM (inactive) | GI50 (U-251): 13.7 µM (inactive) | GI50 (HOP-62): 21.7 µM (inactive) | GI50 (UO-31): 15 µM (inactive)

CN(C)/N=N/c1ccc2[nH]c(=O)[nH]c2c1
GI50 (TK-10): > 100 µM (inactive) | GI50 (Malme-3M): > 100 µM (inactive) | GI50 (OVCAR-4): > 100 µM (inactive) | GI50 (NCI-H460): > 100 µM (inactive) | GI50 (MCF7): > 100 µM (inactive) | GI50 (SK-MEL-2): > 100 µM (inactive) | GI50 (HCT-15): > 100 µM | GI50 (DU-145): > 100 µM (inactive) | GI50 (SK-MEL-28): > 100 µM (inactive) | GI50 (SN12C): > 100 µM (inactive) | GI50 (CAKI-1): > 100 µM (inactive) | GI50 (OVCAR-5): > 100 µM (inactive) | GI50 (SF-295): > 100 µM (inactive) | GI50 (HL-60): 19.2 µM (inactive) | GI50 (U-251): > 100 µM (inactive) | GI50 (HOP-62): > 100 µM (inactive) | GI50 (UO-31): > 100 µM (inactive)

COc1cc(C2c3cc4c(cc3OC(N3CCOCC3)C2C)OCO4)cc(OC)c1OC(C)=O (centres undefined)
GI50 (TK-10): 30.7 µM (inactive) | GI50 (Malme-3M): 5.9 µM (inactive) | GI50 (OVCAR-4): 57.3 µM (inactive) | GI50 (NCI-H460): 7.69 µM (inactive) | GI50 (MCF7): 8.59 µM (inactive) | GI50 (SK-MEL-2): 12.9 µM (inactive) | GI50 (HCT-15): 15 µM | GI50 (DU-145): 26.5 µM (inactive) | GI50 (SK-MEL-28): > 42.1 µM (inactive) | GI50 (SN12C): 17.7 µM (inactive) | GI50 (CAKI-1): 16.6 µM (inactive) | GI50 (OVCAR-5): 49.1 µM (inactive) | GI50 (SF-295): 4.15 µM (inactive) | GI50 (HL-60): 4.65 µM (inactive) | GI50 (U-251): 14.3 µM (inactive) | GI50 (HOP-62): 12.4 µM (inactive) | GI50 (UO-31): 28.4 µM (inactive)
